The source of these data is US10004222B2, “Small molecule ice recrystallization inhibitors and methods of use thereof” (THE UNIVERSITY OF OTTAWA, priority 2012, dated 2018).

Several values for one entry are separate records, joined by “and”; a condition that tells them apart may be missing. Identical values can stand only once.

Assay [1] can be described thus: splat cooling ice recrystallization inhibition (IRI) assay. The conditions noted are these: for decrease in grain size: mean grain size vs PBS alone, 30 min at −6.4° C., FIG. 28. As for the experimental part: In this assay, the area of ice crystals are measured after a 30 minute annealing time at −6.4° C. and compared to a positive control for ice recrystallization resulting in a quantitative measurement of the mean ice grain size. For a positive control, a phosphate buffered saline (PBS) solution was utilized. All samples were normalized to the PBS positive control. The ice recrystallization inhibition activity of the carbohydrate-based non-ionic surfactants n-octyl-β-D-glucopyranoside (compound 3) and n-octyl-β-D-galactopyranoside (compound 4) is shown in FIG. 1.
In this assay, the area of ice crystals are measured after a 30 minute annealing time at −6.4° C. and compared to a positive control for ice recrystallization resulting in a quantitative measurement of the mean ice grain size. For a positive control, a PBS solution was utilized. All samples were normalized to the PBS positive control.
N-aryl-D-gluconamides (3a), (2a), (4a), and (1b) are a class of low molecular weight carbohydrate-based compounds. The ice recrystallization inhibition activity of (3a), (2a), (4a), and (1b) was assessed using a “splat cooling” assay. In this assay, the area of ice crystals are measured after a 30 minutes annealing time at −6.4° C. and compared to a positive control for ice recrystallization resulting in a quantitative measurement of the mean ice grain size. For a positive control, PBS was utilized. All samples were normalized to the PBS positive control.

Assay [2] relates to CD34+ cells (hematopoietic stem cells). Kind of assay: colony forming unit (CFU) assay after cryopreservation of umbilical cord blood. Type of assay: cell-based, human. To be noted: for BFU-E / CFU-G / CFU-GEMM / CFU-GM / CFU-M / Total Number of Colonies: 10% DMSO, post-thaw, 14 days in Methocult; for combined results of the CFU assays vs control: UCB units 26, 27, 28 combined, FIG. 41. The procedure:
Aliquots of LC (50,000 CD34^+ cells) are added to 2.0 mL cryovials. For each experiment, four cryovials are prepared (two for post-thaw viability analysis using flow cytometry and two for functionality analysis using the colony forming unit assay). Cryovials are kept on ice until placement in −80° C. freezer. Cryovials are centrifuged at 400 g and 10° C. for 5 minutes to pellet cells. After centrifugation, the time taken until placement in −80° C. freezer should not exceed 10 minutes. Supernatant is removed by aspiration or by decanting, but preferably by aspiration. Plasma (volume depends on desired cryosolution concentration) is added and cells are suspended by pipetting. Pre-made cryosolutions (see Cryosolutions) are added (volume depends on desired cryosolution concentration) and mixed by pipetting. Cryovials are placed in a Mr. Frosty® rate controlled freezing container which is then placed in a −80° C. freezer for 24 hours. By placing the cryovials in the freezing container, their contents undergo a cooling rate of about −1° C. per minute. After 24 hours, the cryovials are transferred to a liquid nitrogen dewar for storage until thawed for analysis.
Cryosolutions are prepared in distilled autoclaved water supplemented with 0.9% saline and 5% dextran for cryopreservation experiments and diluted with different volumes of plasma in cryovials depending on desired concentration of ice recrystallization inhibitor. N-(4-chlorophenyl)-D-gluconamide (4a) and N-(2-fluorophenyl)-D-gluconamide (2a) are prepared at 25 mM and N-(4-methoxyphenyl)-D-gluconamide (3a) and N-(2,6-difluorobenzyl)-D-gluconamide (1b) are prepared at 55 mM. 100, 50, 33 or 20 μL of 25 mM N-(4-chlorophenyl)-D-gluconamide (4a) or N-(2-fluorophenyl)-D-gluconamide (2a) are added to cryovials containing 50,000 CD34^+ cells suspended in 0, 50, 67, or 80 μL of plasma, respectively, for a final IRI concentration of 25, 12.5, 8 or 5 mM, respectively. 100, 50, 33 or 20 μL of 55 mM N-(4-methoxyphenyl)-D-gluconamide (3a) or N-(2,6-difluorobenzyl)-D-gluconamide (1b) are added to cryovials containing 50,000 CD34^+ cells suspended in 0, 50, 67, or 80 μL of plasma, respectively, for a final IRI concentration of […], 18 or 11 mM, respectively.
Cryovials are thawed in a 37° C. water bath and diluted with 900 μL of IMDM (10% FBS, 1% penicillin/streptomycin). Cryovials are placed on ice until washed. Samples are mixed by pipetting and 80 μL is transferred to a 15 mL Falcon tube. 5 mL of Iscove's Modified Dulbecco's Medium (IMDM) supplemented with 10% fetal bovine serum (FBS) is added and this mixture is centrifuged at 1100 rpm for six minutes to yield a cell pellet and a supernatant. The supernatant is removed by aspiration and the cell pellet is resuspended in 1 mL IMDM (2% FBS) to form a suspension. The suspension is mixed by pipetting. 150 μL of this cell suspension is added to 3 mL Methocult™ media and plating is performed in accordance with manufacturer's instruction. The suspension with Methocult™ media is mixed adequately by vortexing for 20 seconds. The contents are allowed to settle and bubbles are allowed to subside before plating (approximately 5-10 minutes). Using a 3 mL syringe and 16 gauge blunt needles, 2.5 mL of the cell suspension in Methocult™ is taken from the bottom. 1 mL of this 2.5 mL is added to two 5 mL cell culture dishes. The dishes are swirled to ensure cells in Methocult™ medium coat the entire bottom of the dish. A third 5 mL dish is prepared to contain distilled autoclaved water without a lid. These three 5 mL dishes are placed in a 100 mL plate; two 5 mL dishes contain 1 mL of cell suspension in Methocult™ medium with the lid on and one containing distilled autoclaved water with the lid off. The lid is placed on the 100 mL plate and stored in a 37° C. incubator (5% CO2) for two weeks.

On to `O=C(Nc1ccc(Cl)cc1)[C@H](O)[C@@H](O)[C@H](O)[C@H](O)CO` [(4a), N-(4-chlorophenyl)-D-gluconamide], for which, in assay [1], the “decrease in grain size” value is on record as approximately 60%. In assay [2] (5 mM IRI), this compound registered a BFU-E of 22.2, a CFU-G of 4.2, a CFU-GEMM of 6.8 and a CFU-GM of 11.5. Further, in assay [2] (5 mM IRI), the CFU-M came to 1.3 and the “Total Number of Colonies” value was 46.0. For the same compound, the “Tot. No. Colonies” value in assay [2] (5 mM IRI, UCB Unit 27) is 47 and 38. In assay [2] (8 mM IRI), this compound returned a BFU-E of 17.0, a CFU-G of 8.0, a CFU-GEMM of 4.0 and a CFU-GM of 10.5. Besides, in assay [2] (8 mM IRI), the CFU-M was found to be 0.5 and the “Total Number of Colonies” value was determined as 40.0. Moreover, in assay [2] (12.5 mM IRI), the BFU-E worked out at 44.0, the CFU-G amounted to 1.5, the CFU-GEMM stood at 0.0 and the CFU-GM is 8.5. For the same compound, in assay [2] (12.5 mM IRI), the CFU-M was 3.0 and the “Total Number of Colonies” value is 61.0. For the same compound, in assay [2] (25 mM IRI), the BFU-E was 37.0, the CFU-G is 11.5, the CFU-GEMM is reported as 2.0 and the CFU-GM is on record as 10.5. Also, in assay [2] (25 mM IRI), the CFU-M is 2.0 and the “Total Number of Colonies” value was determined as 63.0. Also, in assay [2] (25 mM vs DMSO only), the “fold increase in functionality relative to the control” value stood at 2.0 fold. In addition, the “combined results of the CFU assays vs control” value (“combined results … vs control” for short) in assay [2] was “performed particularly well”.
As for `COc1ccc(NC(=O)[C@H](O)[C@@H](O)[C@H](O)[C@H](O)CO)cc1` [(3a), N-(4-methoxyphenyl)-D-gluconamide], the “decrease in grain size” value in assay [1] is listed as approximately 95%. Also, in assay [2] (11 mM IRI), the BFU-E came out at 20.5, the CFU-G is reported as 5.5, the CFU-GEMM turned out to be 5.9 and the CFU-GM turned out to be 7.4. Besides, in assay [2] (11 mM IRI), the CFU-M was determined as 0.9 and the “Total Number of Colonies” value is reported as 40.4. Moreover, in assay [2] (11 mM IRI, UCB Unit 27), the “Tot. No. Colonies” value is 33 and 37. In assay [2] (18 mM IRI), this compound had a BFU-E of 18.0, a CFU-G of 8.8, a CFU-GEMM of 2.8 and a CFU-GM of 11.3. In addition, in assay [2] (18 mM IRI), the CFU-M was determined as 0.3 and the “Total Number of Colonies” value stood at 36.0. Also, in assay [2] (27.5 mM IRI), the CFU-G was 6.5, the CFU-GEMM is given as 15.5, the CFU-GM was 14.0 and the “Total Number of Colonies” value came to 74.5. For the same compound, in assay [2] (27.5 mM vs DMSO only), the “fold increase in functionality relative to the control” value is given as 2.4 fold. For the same compound, in assay [2] (55 mM IRI), the BFU-E is on record as 24.5, the CFU-G stood at 9.5, the CFU-GEMM is 6.5 and the CFU-GM was found to be 15.0. Further, in assay [2] (55 mM IRI), the CFU-M is on record as 1.0 and the “Total Number of Colonies” value was 56.5. In addition, the “combined results … vs control” value in assay [2] was “performed particularly well”.
Regarding `O=C(Nc1ccccc1F)[C@H](O)[C@@H](O)[C@H](O)[C@H](O)CO` [(2a), N-(2-fluorophenyl)-D-gluconamide], the “decrease in grain size” value in assay [1] is approximately 95%. The “Tot. No. Colonies” value in assay [2] (5 mM IRI, UCB Unit 26) is 48 and 66 and 42; in assay [2] (5 mM IRI, UCB Unit 27) it was 38 and 34. The “combined results … vs control” value in assay [2] is “performed particularly well”.
As to `O=C(NCc1c(F)cccc1F)[C@H](O)[C@@H](O)[C@H](O)[C@H](O)CO` [(1b), N-(2,6-difluorobenzyl)-D-gluconamide], the “ice recrystallization inhibition activity” value in assay [1] (concentration not given) is reported as “higher IRI activity than compound (2b)”. For the same compound, the “decrease in grain size” value in assay [1] was “about 85%”. Besides, in assay [2] (11 mM IRI), the BFU-E stood at 25.3, the CFU-G was 4.3, the CFU-GEMM was determined as 2.4 and the CFU-GM stood at 9.8. Further, in assay [2] (11 mM IRI), the CFU-M amounted to 1.5 and the “Total Number of Colonies” value is reported as 41.9. The “Tot. No. Colonies” value in assay [2] (11 mM IRI, UCB Unit 27) is 31 and 30. In assay [2] (18 mM IRI), this compound had a BFU-E of 24.0, a CFU-G of 9.5, a CFU-GEMM of 7.5 and a CFU-GM of 11.0. Also, in assay [2] (18 mM IRI), the CFU-M is recorded as 4.5 and the “Total Number of Colonies” value was found to be 56.5. The “fold increase in functionality relative to the control” value in assay [2] (18 mM vs DMSO only) came to 1.8 fold. In addition, in assay [2] (27.5 mM IRI), the CFU-G came out at 3.0, the CFU-GEMM came out at 3.5, the CFU-GM was 11.0 and the “Total Number of Colonies” value is on record as 48.0. In assay [2] (55 mM IRI), this compound gave a BFU-E of 29.5, a CFU-G of 8.5, a CFU-GEMM of 1.5 and a CFU-GM of 10.5. Besides, in assay [2] (55 mM IRI), the CFU-M is given as 0.5 and the “Total Number of Colonies” value turned out to be 50.5. The “combined results … vs control” value in assay [2] is “performed particularly well”.
